Measurements published in patent publication US20080194585A1, “Fungicidal Pyrazine Derivatives” (priority 2005, published 2008).
Marks after values point to notes of the source that are not given here.

Tests used:
Plasmopara viticola = test: Test D: grape downy mildew, spray after inoculation of grape seedlings; type: in vivo
Description: Upon removal, disease ratings were made. […] A dash (-) indicates no test results.

Phytophthora infestans = test: whole plant or invertebrate; type: in vivo
Septoria tritici = test: Test J: wheat leaf blotch, preventive spray on wheat seedlings; type: in vivo
Description: A dash (-) indicates no test results.

[1] = test system: Puccinia recondita f. sp. tritici; test: Test K: wheat leaf rust, preventive spray on wheat seedlings
Botrytis cinerea = test: Test E: tomato botrytis, preventive spray on tomato seedlings
Septoria nodorum = test: Test H: wheat glum blotch, preventive spray on wheat seedlings
Description: (the causal agent of wheat glum blotch) and incubated in a saturated atmosphere at 20° C. for 48 h, and then moved to a growth chamber at 22° C. for 5 days, after which disease ratings were made.

[2] = test system: Erysiphe graminis f. sp. tritici; test: Test L: wheat powdery mildew, preventive spray on wheat seedlings
Sclerotinia sclerotiorum = test: Test C: cucumber white mold, preventive spray on cucumber seedlings
Pythium aphanidermatum = test: Test A: bluegrass pythium blight, preventive spray on bluegrass seedlings
Rhizoctonia oryzae = test: Test G: turf brown patch, preventive spray on creeping bent grass seedlings
Description: (the causal agent of turf brown patch) and incubated in a saturated atmosphere at 27° C. for 24 h, and then moved to a growth chamber at 27° C. for 5 days, after which disease ratings were made.

[3] = test system: Colletotrichum orbiculare; test: Test B: cucumber Colletotrichum anthracnose, preventive spray on cucumber seedlings

CC(C)Cn1c(-c2c(F)cccc2F)c(Cl)nc(-c2nccs2)c1=O [compound 101]
Test D disease control rating (Plasmopara viticola; 200 ppm): 15%
Test F disease control rating (Phytophthora infestans; 200 ppm): 0%
Test J disease control rating (Septoria tritici; 40 ppm (*)): 53* %
Test K disease control rating ([1]; 40 ppm (*)): 0* %
Test E disease control rating (Botrytis cinerea; 40 ppm (*)): 0* %
Test H disease control rating (Septoria nodorum; 40 ppm (*)): 0* %
Test L disease control rating ([2]; 40 ppm (*)): 0* %
Test C disease control rating (Sclerotinia sclerotiorum; 200 ppm): 0%
Test A disease control rating (Pythium aphanidermatum; 200 ppm): 0%
Test G disease control rating (Rhizoctonia oryzae; 40 ppm (*)): 0* %
Test B disease control rating ([3]; 40 ppm (*)): 0* %

CC(C)Cn1c(-c2cc(F)cc(F)c2F)c(Cl)nc(-n2cncn2)c1=O [compound 138]
Test D disease control rating (Plasmopara viticola; 100 ppm (#)): 12# %
Test F disease control rating (Phytophthora infestans; 100 ppm (#)): 0# %
Test J disease control rating (Septoria tritici; 100 ppm (#)): 46# %
Test K disease control rating ([1]; 100 ppm (#)): 0# %
Test E disease control rating (Botrytis cinerea; 100 ppm (#)): 83# %
Test H disease control rating (Septoria nodorum; 100 ppm (#)): 0# %
Test L disease control rating ([2]; 100 ppm (#)): 0# %
Test C disease control rating (Sclerotinia sclerotiorum; 100 ppm (#)): 24# %
Test A disease control rating (Pythium aphanidermatum; 100 ppm (#)): 0# %
Test G disease control rating (Rhizoctonia oryzae; 100 ppm (#)): 55# %
Test B disease control rating ([3]; 100 ppm (#)): 0# %

CC(C)Cn1c(-c2ccccc2C(F)(F)F)c(Cl)nc(-n2cncn2)c1=O [compound 140]
Test D disease control rating (Plasmopara viticola; 200 ppm): 12%
Test F disease control rating (Phytophthora infestans; 200 ppm): 0%
Test J disease control rating (Septoria tritici; 200 ppm): 41%
Test K disease control rating ([1]; 200 ppm): 0%
Test E disease control rating (Botrytis cinerea; 200 ppm): 99%
Test H disease control rating (Septoria nodorum; 200 ppm): 0%
Test L disease control rating ([2]; 200 ppm): 0%
Test C disease control rating (Sclerotinia sclerotiorum; 200 ppm): 83%
Test A disease control rating (Pythium aphanidermatum; 200 ppm): 0%
Test G disease control rating (Rhizoctonia oryzae; 200 ppm): 34%
Test B disease control rating ([3]; 200 ppm): 0%

CC(C)Cn1c(-c2ccccc2C(F)(F)F)c(Cl)nc(-n2cccn2)c1=O [compound 141]
Test D disease control rating (Plasmopara viticola; 200 ppm): 12%
Test F disease control rating (Phytophthora infestans; 200 ppm): 0%
Test J disease control rating (Septoria tritici; 200 ppm): 99%
Test K disease control rating ([1]; 200 ppm): 60%
Test E disease control rating (Botrytis cinerea; 200 ppm): 92%
Test H disease control rating (Septoria nodorum; 200 ppm): 73%
Test L disease control rating ([2]; 200 ppm): 79%
Test C disease control rating (Sclerotinia sclerotiorum; 200 ppm): 63%
Test A disease control rating (Pythium aphanidermatum; 200 ppm): 0%
Test G disease control rating (Rhizoctonia oryzae; 200 ppm): 96%
Test B disease control rating ([3]; 200 ppm): 96%

CC(C)Cn1c(-c2ccc(F)cc2)c(Cl)nc(-n2cncn2)c1=O [compound 142]
Test D disease control rating (Plasmopara viticola; 200 ppm): 4%
Test F disease control rating (Phytophthora infestans; 200 ppm): 0%
Test J disease control rating (Septoria tritici; 200 ppm): 100%
Test K disease control rating ([1]; 200 ppm): 27%
Test E disease control rating (Botrytis cinerea; 200 ppm): 100%
Test H disease control rating (Septoria nodorum; 200 ppm): 100%
Test L disease control rating ([2]; 200 ppm): 81%
Test C disease control rating (Sclerotinia sclerotiorum; 200 ppm): 0%
Test A disease control rating (Pythium aphanidermatum; 200 ppm): 64%
Test G disease control rating (Rhizoctonia oryzae; 200 ppm): 0%
Test B disease control rating ([3]; 200 ppm): 16%

CC(C)Cn1c(-c2ccc(F)cc2)c(Cl)nc(-n2cccn2)c1=O [compound 143]
Test D disease control rating (Plasmopara viticola; 200 ppm): 12%
Test F disease control rating (Phytophthora infestans; 200 ppm): 0%
Test J disease control rating (Septoria tritici; 200 ppm): 100%
Test K disease control rating ([1]; 200 ppm): 68%
Test E disease control rating (Botrytis cinerea; 200 ppm): 99%
Test H disease control rating (Septoria nodorum; 200 ppm): 0%
Test L disease control rating ([2]; 200 ppm): 0%
Test C disease control rating (Sclerotinia sclerotiorum; 200 ppm): 0%
Test A disease control rating (Pythium aphanidermatum; 200 ppm): 0%
Test G disease control rating (Rhizoctonia oryzae; 200 ppm): 47%
Test B disease control rating ([3]; 200 ppm): 0%

CC(C)Cn1c(-c2ccc(C#N)cc2)c(Cl)nc(-n2cncn2)c1=O [compound 144]
Test D disease control rating (Plasmopara viticola; 200 ppm): 12%
Test F disease control rating (Phytophthora infestans; 200 ppm): 0%
Test J disease control rating (Septoria tritici; 200 ppm): 89%
Test K disease control rating ([1]; 200 ppm): 0%
Test E disease control rating (Botrytis cinerea; 200 ppm): 0%
Test H disease control rating (Septoria nodorum; 200 ppm): 0%
Test L disease control rating ([2]; 200 ppm): 0%
Test C disease control rating (Sclerotinia sclerotiorum; 200 ppm): 0%
Test A disease control rating (Pythium aphanidermatum; 200 ppm): 0%
Test G disease control rating (Rhizoctonia oryzae; 200 ppm): 0%
Test B disease control rating ([3]; 200 ppm): 0%

CC(C)Cn1c(-c2ccc(C#N)cc2)c(Cl)nc(-n2cccn2)c1=O [compound 145]
Test D disease control rating (Plasmopara viticola; 200 ppm): 20%
Test F disease control rating (Phytophthora infestans; 200 ppm): 0%
Test J disease control rating (Septoria tritici; 200 ppm): 100%
Test K disease control rating ([1]; 200 ppm): 68%
Test E disease control rating (Botrytis cinerea; 200 ppm): 99%
Test H disease control rating (Septoria nodorum; 200 ppm): 0%
Test L disease control rating ([2]; 200 ppm): 0%
Test C disease control rating (Sclerotinia sclerotiorum; 200 ppm): 49%
Test A disease control rating (Pythium aphanidermatum; 200 ppm): 0%
Test G disease control rating (Rhizoctonia oryzae; 200 ppm): 40%
Test B disease control rating ([3]; 200 ppm): 0%
